No end group written: not given here.
How the values were obtained:
E. coli 25922 [1] = assay: MBC in 100% human serum (HS); type: cell-based, Escherichia coli
Description: Minimum inhibitory concentration (MIC) and minimum bactericidal concentration (MBC) assays are standard methods used to first examine antimicrobial potential. These assays are often performed against lab strains of bacteria grown in Mueller–Hinton (MH) media which is not representative of conditions found in the human body during infection. […] W3110 is a K12-derived strain and cannot grow in HS and lacks O-antigen on its cell surface in contrast to 25922. MBCs were used instead of MICs because HS was opaque, making bacterial growth difficult to observe by sight. We chose three cationic AMPs previously discovered using SLAY and four natural cationic AMPs, each with α-helical or β-hairpin secondary structure ([18–24]) (Table S1).

E. coli 25922 [2] = assay: NPN outer membrane disruption assay; type: cell-based, Escherichia coli; conditions: 30 min of treatment, PBS, various concentrations, n = 3
Description: (§1) First, we performed two fluorescent membrane disruption assays using 1-N-phenylnaphthylamine (NPN) and propidium iodide (PI). Normally the outer membrane excludes hydrophobic molecules such as NPN, but when damaged, NPN can bind hydrophobic fatty acids within the membrane and fluoresce. PI fluoresces upon DNA binding but can only gain access to the cytoplasm if both the outer and inner membranes have been permeabilized. Antibiotics tested retained antimicrobial activity under the assay conditions used (Fig. S3A).
A culture of E. coli 25922 was grown overnight in liquid media at 37°C. The following day, it was back diluted 1:25 in LB media and grown at 37°C until an OD600 of 0.5. The culture was then pelleted at 1,000 g, washed once with PBS, and resuspended to a final concentration of OD600 0.5. […] Each sample was loaded in triplicate into a 96-well optical-bottom plate and serially diluted two-fold with final volumes of 50 µl in each well. Fifty microliters of the 40 µM NPN was then added to each well, followed by 100 µl of the bacterial cell suspension. After 30 min, the plate was transferred to a BioTek Synergy LX multimode reader for fluorescent measurements. Triplicate samples were normalized to nontreated wells and presented as a mean ± 1 SD (n = 3).

G. mellonella larvae = assay: LD50 in G. mellonella larvae; type: in vivo, Galleria mellonella; conditions: single injection of a 100-mg/kg dose, death after 4 days, n = 10
Protocol: Live G. mellonella larvae were purchased from DBDPet. Larvae appearing fully healthy (no apparent melanization) and weighing between 200 and 300 mg were used for survival assays. Larvae were first injected into their second left proleg with 10 µl of PBS or PBS containing 1 × 10^6E. coli 25922 cells grown to an OD of 0.5 and washed in PBS. Injections were performed using a Hamilton 250-µl pipet equipped with an autodispenser and 30-gauge BD needle. […] Larvae groups were then incubated at 37°C for 72 h and observed for death. Larvae were determined to be dead if they were unable to right themselves after being placed on their back. Significance was determined by comparing Kaplan–Meier survival curves to untreated using a log-rank test (n ≥ 13 per sample).

E. coli 25922 [3] = assay: PI uptake (outer and inner membrane permeabilization) assay; type: cell-based, Escherichia coli; conditions: 30 min of treatment, PBS + 50 mM glucose, 37°C, n = 3
Description: as §1
PI uptake was measured for E. coli 25922 as previously described ([20]). Briefly, single colonies from overnight growth on LB were inoculated into MH broth and grown to mid-log phase. Cells were then washed twice with PBS + 50 mM glucose and resuspended to an OD = 0.1 in PBS + 50 mM glucose. PI was added at a concentration of 10 µg/ml, and 50 µl of the PI cell mixture was quickly added to a preprepared 96-well plate (NUNC black-walled clear bottom plate) that contained 50 µl of various peptide concentrations. The plate was then allowed to incubate for 30 min in the dark at 37°C and was then read using the Biotek Synergy LX plate reader with the fluorescence red filter cube. Triplicate samples were normalized to nontreated wells and presented as a mean ± 1 SD (n = 3).

E. coli 25922 [4] = assay: MIC (growth inhibition) in MH media; type: cell-based, Escherichia coli; conditions: 37°C, 18–24 h, examined by eye, median of three replicates

CC(C)C[C@H](NC(=O)[C@H](CCCNC(=N)N)NC(=O)CNC(=O)CNC(=O)[C@@H](N)CCCNC(=N)N)C(=O)N[C@H]1CSSC[C@@H](C(=O)N[C@H](C(=O)NCC(=O)N[C@@H](CCCNC(=N)N)C(N)=O)C(C)C)NC(=O)[C@H](C(C)C)NC(=O)[C@@H]2CSSC[C@H](NC(=O)[C@H](Cc3ccc(O)cc3)NC1=O)C(=O)N[C@@H](CCCNC(=N)N)C(=O)N[C@@H](CCCNC(=N)N)C(=O)N[C@@H](CCCNC(=N)N)C(=O)N[C@@H](Cc1ccccc1)C(=O)N2 [Protegrin-1]
serum activity (MBC in HS), in words (E. coli 25922 [1]): retained the most activity in HS relative to MH | NPN fluorescence (outer membrane permeation) (E. coli 25922 [2]): strong fluorescence of both NPN and PI | LD50 for G. mellonella larvae (G. mellonella larvae): over 100 mg/kg | PI uptake (outer and inner membrane permeabilization) (E. coli 25922 [3]): strong fluorescence of both NPN and PI

KWCFRVCYRGICYRRCR-NH2 (disulfide (positions not given here)) [Tachyplesin-1, natural β-AMP]
serum activity (MBC in HS), in words (E. coli 25922 [1]): retained the most activity in HS relative to MH

Kanamycin
NPN fluorescence (outer membrane permeation) (E. coli 25922 [2]): no NPN fluorescence or PI uptake | Antibiotic activity against E. coli 25922: MIC (E. coli 25922 [4]): 4 µg/mL | PI uptake (outer and inner membrane permeabilization) (E. coli 25922 [3]): no NPN fluorescence or PI uptake

Reference: publication PMC10449418, “Adapting antibacterial display to identify serum-active macrocyclic peptide antibiotics” (PNAS Nexus, 2023)
